This note sets out measurements from ChEMBL document CHEMBL1909046, “DrugMatrix in vitro pharmacology data”.

For one series, the target named is Cannabinoid receptor 1 (Homo sapiens, UniProt P21554). It counts as cell membranes, Chem-1, Membrane. To be noted: chem-1. Further: in other assays of this panel Not Active means under 50% inhibition at 10 µM.
Sequence of Cannabinoid receptor 1 (P21554 whole entry): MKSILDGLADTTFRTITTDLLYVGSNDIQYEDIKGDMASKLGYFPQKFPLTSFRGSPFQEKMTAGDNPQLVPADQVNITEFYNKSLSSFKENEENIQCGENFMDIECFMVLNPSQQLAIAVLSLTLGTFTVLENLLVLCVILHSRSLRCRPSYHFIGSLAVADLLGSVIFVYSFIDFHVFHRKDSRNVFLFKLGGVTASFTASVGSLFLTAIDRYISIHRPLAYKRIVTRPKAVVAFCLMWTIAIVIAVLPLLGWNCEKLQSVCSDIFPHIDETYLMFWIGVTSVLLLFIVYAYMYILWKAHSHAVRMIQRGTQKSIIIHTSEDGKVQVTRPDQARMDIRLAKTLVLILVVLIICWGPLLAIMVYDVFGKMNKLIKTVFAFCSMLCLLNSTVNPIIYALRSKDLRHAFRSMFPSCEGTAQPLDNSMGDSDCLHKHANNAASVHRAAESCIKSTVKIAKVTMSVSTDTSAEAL
Consider `CC(C)Cc1ccc(C(C)C(=O)O)cc1` (stereo not given) [IBUPROFEN], for which the IC50 entry is listed as “Not Active”.

As for `COc1ccc2c(c1)c(CC(=O)O)c(C)n2C(=O)c1ccc(Cl)cc1` [INDOMETHACIN], the IC50 entry is reported as “Not Active”.

As to `CCc1c2c(nc3ccc(OC(=O)N4CCC(N5CCCCC5)CC4)cc13)-c1cc3c(c(=O)n1C2)COC(=O)[C@]3(O)CC` [IRINOTECAN], the IC50 result is reported as “Not Active”.

As for `CC(C(=O)O)c1cccc(C(=O)c2ccccc2)c1` (stereo not given) [KETOPROFEN], the IC50 entry is on record as “Not Active”.

The target in the next series is T1, Cholecystokinin receptor type A (Homo sapiens, UniProt P32238). Further: in other assays of this panel Not Active means under 50% inhibition at 10 µM.
T1 sequence (P32238 whole entry): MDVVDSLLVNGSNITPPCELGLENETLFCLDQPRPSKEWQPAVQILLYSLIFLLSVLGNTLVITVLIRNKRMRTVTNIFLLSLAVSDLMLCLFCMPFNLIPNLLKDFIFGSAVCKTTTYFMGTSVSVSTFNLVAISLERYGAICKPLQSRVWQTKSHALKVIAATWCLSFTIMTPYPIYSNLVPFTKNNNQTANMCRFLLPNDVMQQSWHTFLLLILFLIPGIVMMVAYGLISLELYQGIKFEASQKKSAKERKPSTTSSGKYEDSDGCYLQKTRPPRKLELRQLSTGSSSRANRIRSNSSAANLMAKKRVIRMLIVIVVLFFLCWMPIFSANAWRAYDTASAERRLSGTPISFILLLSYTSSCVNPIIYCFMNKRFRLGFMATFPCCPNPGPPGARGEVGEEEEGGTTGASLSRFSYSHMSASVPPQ
The class given is cell membranes, Membrane. Conditions: 1321-n1.
Take `CC(C)Cc1ccc(C(C)C(=O)O)cc1` (stereo not given) [IBUPROFEN]: the IC50 result is “Not Active”.

As for `COc1ccc2c(c1)c(CC(=O)O)c(C)n2C(=O)c1ccc(Cl)cc1` [INDOMETHACIN], the IC50 entry is “Not Active”.

Consider `CCc1c2c(nc3ccc(OC(=O)N4CCC(N5CCCCC5)CC4)cc13)-c1cc3c(c(=O)n1C2)COC(=O)[C@]3(O)CC` [IRINOTECAN], for which the IC50 result is “Not Active”.

On to `CC(C(=O)O)c1cccc(C(=O)c2ccccc2)c1` (stereo not given) [KETOPROFEN], for which the IC50 entry is on record as “Not Active”.

The next series deals with D(3) dopamine receptor (Homo sapiens, UniProt P35462). As to the kind of experiment: DRUGMATRIX: Dopamine D3 radioligand binding (ligand: [3H] Spiperone). The class given is cell membranes, CHO, Membrane. Conditions: cho.
Sequence of D(3) dopamine receptor (P35462 whole entry): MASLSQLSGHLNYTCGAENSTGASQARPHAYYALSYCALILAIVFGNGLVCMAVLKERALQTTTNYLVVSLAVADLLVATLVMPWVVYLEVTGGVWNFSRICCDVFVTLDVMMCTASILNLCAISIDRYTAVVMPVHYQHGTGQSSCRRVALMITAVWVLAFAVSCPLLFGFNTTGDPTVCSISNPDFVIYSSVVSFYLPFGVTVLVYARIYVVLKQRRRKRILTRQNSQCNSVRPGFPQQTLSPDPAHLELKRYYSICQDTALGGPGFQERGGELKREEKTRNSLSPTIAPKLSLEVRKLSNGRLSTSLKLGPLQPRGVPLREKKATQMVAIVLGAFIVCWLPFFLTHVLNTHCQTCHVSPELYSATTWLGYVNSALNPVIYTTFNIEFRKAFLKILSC
Take `CC(C)Cc1ccc(C(C)C(=O)O)cc1` (stereo not given) [IBUPROFEN]: the IC50 entry was “Not Active”.

Regarding `COc1ccc2c(c1)c(CC(=O)O)c(C)n2C(=O)c1ccc(Cl)cc1` [INDOMETHACIN], the IC50 entry is on record as “Not Active”.

For `CCc1c2c(nc3ccc(OC(=O)N4CCC(N5CCCCC5)CC4)cc13)-c1cc3c(c(=O)n1C2)COC(=O)[C@]3(O)CC` [IRINOTECAN], the IC50 entry is recorded as “Not Active”.

For the compound `CC(C(=O)O)c1cccc(C(=O)c2ccccc2)c1` (stereo not given) [KETOPROFEN], the IC50 entry is recorded as “Not Active”.

Tested on in another series: not listed separately
As to the kind of experiment: DRUGMATRIX: Phorbol Ester radioligand binding (ligand: [3H] PDBu). It counts as cell membranes, Mus musculus, ICR, Brain, Membrane. Conditions: Not Active = under 50% inhibition at 10 µM.
In the case of `CC(C)Cc1ccc(C(C)C(=O)O)cc1` (stereo not given) [IBUPROFEN], the IC50 result is reported as “Not Active” and the Ki entry is “Not Active”.

Consider `COc1ccc2c(c1)c(CC(=O)O)c(C)n2C(=O)c1ccc(Cl)cc1` [INDOMETHACIN], for which the IC50 result was “Not Active” and the Ki entry is given as “Not Active”.

As to `CCc1c2c(nc3ccc(OC(=O)N4CCC(N5CCCCC5)CC4)cc13)-c1cc3c(c(=O)n1C2)COC(=O)[C@]3(O)CC` [IRINOTECAN], the IC50 entry was “Not Active” and the Ki entry is on record as “Not Active”.

Take `CC(C(=O)O)c1cccc(C(=O)c2ccccc2)c1` (stereo not given) [KETOPROFEN]: the IC50 result is “Not Active” and the Ki result is given as “Not Active”.

Tested on in another series: not listed separately
As to the kind of experiment: DRUGMATRIX: Phosphodiesterase PDE4 enzyme inhibition (substrate: [3H]cAMP + cAMP). To be noted: u-937; Not Active = under 50% inhibition at 10 µM.
For the compound `CC(C)Cc1ccc(C(C)C(=O)O)cc1` (stereo not given) [IBUPROFEN], the IC50 entry is listed as “Not Active” and the Ki entry was “Not Active”.

As for `COc1ccc2c(c1)c(CC(=O)O)c(C)n2C(=O)c1ccc(Cl)cc1` [INDOMETHACIN], the IC50 entry is listed as “Not Active” and the Ki result was “Not Active”.

Take `CCc1c2c(nc3ccc(OC(=O)N4CCC(N5CCCCC5)CC4)cc13)-c1cc3c(c(=O)n1C2)COC(=O)[C@]3(O)CC` [IRINOTECAN]: the IC50 entry is “Not Active” and the Ki entry is “Not Active”.

For `CC(C(=O)O)c1cccc(C(=O)c2ccccc2)c1` (stereo not given) [KETOPROFEN], the IC50 entry is listed as “Not Active” and the Ki result is on record as “Not Active”.

The next series deals with T2, Caspase-1 (Homo sapiens, UniProt P29466).
T2 sequence (P29466 whole entry): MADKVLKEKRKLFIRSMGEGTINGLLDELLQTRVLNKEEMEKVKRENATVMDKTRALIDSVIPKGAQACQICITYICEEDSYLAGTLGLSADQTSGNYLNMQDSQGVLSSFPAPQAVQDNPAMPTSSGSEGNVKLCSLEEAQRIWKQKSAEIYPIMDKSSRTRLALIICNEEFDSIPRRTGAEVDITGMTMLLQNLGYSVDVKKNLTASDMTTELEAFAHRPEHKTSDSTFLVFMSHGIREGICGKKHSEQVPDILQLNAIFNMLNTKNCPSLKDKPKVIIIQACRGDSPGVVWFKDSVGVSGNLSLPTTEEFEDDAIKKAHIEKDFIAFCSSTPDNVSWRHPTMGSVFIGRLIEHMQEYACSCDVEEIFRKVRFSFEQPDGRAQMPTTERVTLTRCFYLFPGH
More on the design: species or system Escherichia coli.
Conditions: not given
Take `CC(C)Cc1ccc(C(C)C(=O)O)cc1` (stereo not given) [IBUPROFEN]: the IC50 result was “Not Active”.

Regarding `COc1ccc2c(c1)c(CC(=O)O)c(C)n2C(=O)c1ccc(Cl)cc1` [INDOMETHACIN], the IC50 entry is “Not Active”.

On to `CCc1c2c(nc3ccc(OC(=O)N4CCC(N5CCCCC5)CC4)cc13)-c1cc3c(c(=O)n1C2)COC(=O)[C@]3(O)CC` [IRINOTECAN], for which the IC50 result is given as “Not Active”.

Consider `CC(C(=O)O)c1cccc(C(=O)c2ccccc2)c1` (stereo not given) [KETOPROFEN], for which the IC50 entry is “Not Active”.

The next series concerns the target T3, Cytochrome P450 2A6 (Homo sapiens, UniProt P11509). Further: in other assays of this panel Not Active means under 50% inhibition at 10 µM.
T3 sequence (P11509 whole entry): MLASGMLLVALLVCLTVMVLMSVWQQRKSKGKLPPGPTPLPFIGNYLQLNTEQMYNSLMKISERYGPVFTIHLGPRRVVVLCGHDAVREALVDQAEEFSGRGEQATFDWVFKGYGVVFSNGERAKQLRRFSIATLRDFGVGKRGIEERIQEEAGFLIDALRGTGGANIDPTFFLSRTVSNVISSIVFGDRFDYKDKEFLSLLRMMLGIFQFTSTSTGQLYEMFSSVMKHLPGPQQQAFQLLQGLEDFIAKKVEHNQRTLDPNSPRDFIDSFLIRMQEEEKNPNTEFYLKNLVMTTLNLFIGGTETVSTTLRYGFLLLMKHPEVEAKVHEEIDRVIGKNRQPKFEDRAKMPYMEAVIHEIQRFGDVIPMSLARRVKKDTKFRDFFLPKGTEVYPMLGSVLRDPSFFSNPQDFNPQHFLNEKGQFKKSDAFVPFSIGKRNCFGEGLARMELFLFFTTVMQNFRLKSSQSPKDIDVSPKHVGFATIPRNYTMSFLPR
To be noted: bti-tn-5b1-4.
As for `CC(C)Cc1ccc(C(C)C(=O)O)cc1` (stereo not given) [IBUPROFEN], the IC50 entry was “Not Active” and the Ki entry is listed as “Not Active”.

For `COc1ccc2c(c1)c(CC(=O)O)c(C)n2C(=O)c1ccc(Cl)cc1` [INDOMETHACIN], the IC50 entry is on record as “Not Active” and the Ki result is recorded as “Not Active”.

With `CCc1c2c(nc3ccc(OC(=O)N4CCC(N5CCCCC5)CC4)cc13)-c1cc3c(c(=O)n1C2)COC(=O)[C@]3(O)CC` [IRINOTECAN], the IC50 entry is recorded as “Not Active” and the Ki result is on record as “Not Active”.

For the compound `CC(C(=O)O)c1cccc(C(=O)c2ccccc2)c1` (stereo not given) [KETOPROFEN], the IC50 result is “Not Active” and the Ki result is “Not Active”.
